According to patent US20250186403A1 (ARIZONA BOARD OF REGENTS ON BEHALF OF THE UNIVERSITY OF …, priority 2022, published 2025):

What was measured:
Cne-WT = experiment: Fungistatic/fungicidal assay (MFC); format: cell-based, Cryptococcus neoformans
Protocol: The assay was performed by microdilution method as explained in materials and method. […] Cells in the wells were mixed by pipetting, and 30 μl of the culture taken from each well was plated onto SD agar plates. […] The MFC is the minimum drug concentration where there are no colonies. If the ratio of MFC/MIC≤4 is considered fungicidal.
Freshly grown Cne-WT colony on SD agar plate was resuspended in sterile water to give an OD600 of 0.1. This fungal suspension was further diluted at 1:500 in RPMI-MOPS media. A volume of 100 μl of the final cell suspension was added to each well in the assay plates. Additionally, 100 μl of final cell suspension was plated onto the SD agar plate to examine the actual cell count; and colonies were counted after 3 days. The assay plates were incubated at 30° C. for 48 h in a humidified incubator. The culture wells were mixed with micropipette tips, and 20 μl of the culture along with 70 μl RPMI-MOPS was plated onto the SD agar plates (100 mm) and incubated at 30° C. for 72 h before counting the colonies. […] The ratio of MFC/MIC≤4 was considered fungicidal and >4 as fungistatic.

[1] = target: T1, recombinant Drosophila Hh protein (C-Hh-Y) (Drosophila melanogaster, UniProt Q02936); experiment: Hh cholesterolysis assay; format: biochemical; conditions: CMN at up to 200 µM, 22 h
T1 construct: His tag (inferred from 'purified similarly', i.e. Ni-NTA); made in house; host or cells: E. coli LMG194
Protocol: The Tm values were calculated by Thermal shift software. […] The assay was repeated three times. […]
The hedgehog FRET protein C-Hh-Y was expressed and purified similarly, except that the protein was expressed in E. coli strain LMG194, induced with arabinose at 16° C. overnight, and the purified protein was stored in a storage buffer containing 10% glycerol and 4 mM TCEP.
Hh cholesterolysis assay: Cholesterolysis assay was done as per published methodology with modifications. […] With 50 μl reaction volume, a fixed volume of DMSO or CNM with varying concentrations (final 6.25 to 200 µM) were added and incubated at RT for 30 min. Cholesterolysis was induced by adding 1 μl stock solution of cholesterol in ethanol to each tube to attain a final concentration of 200 µM. After incubating at RT for 22 h, 20 μl of the reaction mixture was mixed with an equal volume of reducing SDS-PAGE loading buffer and loaded onto the 12% SDS-PAGE gel, followed by coomassie blue staining. Gel images were taken using the ChemiDoc imaging system (Bio-Rad). Band densities were analyzed using the Image lab software and compared with Student's t-test using the GraphPad Prism software version 9.1.0.

Pharmacokinetics in mice = format: in vivo; conditions: 40 mg/kg BW oral gavage, male C57BL/6 mice, plasma
Protocol: Blood samples were collected at 0, 0.5, 1, 2, 4, 8, 12, 16, 24, and 36 h after oral gavage. […] Other PK parameters are in Table 4. The values represent means±SD. […] On day 0, mice were infected with H99 (10^7 cells/mice) intranasally or mock-infected with PBS. Mice were euthanized on day 5, and lungs were dissected out, homogenized in RPMI-1640-MOPS media, and plated onto Sabouraud dextrose agar plates containing antibiotics. Plates were incubated at 30° C. for 72 h, and colonies were counted. […] VC: Vehicle control, (90% corn oil, 10% DMSO). Dpi: Days post-infection. CFU: Colony-forming units.
Pharmacokinetics in mice: C57BL/6 mice (male, 2-3 months old) were obtained from breeding stocks maintained at the University of Arizona. All mice were housed under conditions of controlled temperature (22° C.) with the on-off light cycle, food, and water provided ad libitum and were fasted for 12 h before administration of the compound. […] Blood samples were collected from the tail vein using heparinized capillary tubes at 0, 0.5, 1, 2, 4, 8, 12, 16, 24, and 36 h after oral gavage. Plasma was separated and stored at −30° C. until use. For extraction of the compound, 5 μl of plasma from each mouse were mixed with 30 μL methanol and 10 μl of internal standard (IS; UAWJ102 50 ng/ml). The mixture was vortexed for 30 seconds and diluted with 760 µL Milli Q water, and loaded onto an ISOLUTER C18 SPE Columns (1 ml/100 mg, Biotage, Salem, NH) pre-conditioned with 1 ml methanol followed by 1 ml water, and the cartridge was then washed with 1 ml water. The analytes were finally eluted from the cartridges with 1 ml methanol containing 5% ammonia solution, dried with nitrogen, and reconstituted in 100 μl methanol.
The analyte was detected and quantified using LC-MS (Agilent 1290 UPLC system Agilent Technologies, Santa Clara, CA) and a Sciex Qtrap6500+ Mass Spectrometer (AB SCIEX, Framingham, MA). Analytes were separated on an EclipsePlus C18 column (2.1×50 mm, 1.8 μm, Agilent) at a temperature of 35° C., with mobile phase A containing 0.1% formic acid (v/v) in water and mobile phase B containing 0.1% formic acid (v/v) in methanol. Elution was at a flow rate of 0.2 mL/min as follows: 10% B (0-0.5 min), 10% B→95% B (0.5-3.5 min), 95% B (3.5-7 min), […] (7-7.1 min), 10% B (7.1-10 min). The MS was operated in the positive ion mode, using electrospray ionization. The ion spray voltage and temperature were set at 5000 V and 500° C., respectively. Curtain gas, ion source gas 1, and ion source gas 2 were set at 25, 50, 50 psi, respectively.

T1 sequence (Q02936 258-471): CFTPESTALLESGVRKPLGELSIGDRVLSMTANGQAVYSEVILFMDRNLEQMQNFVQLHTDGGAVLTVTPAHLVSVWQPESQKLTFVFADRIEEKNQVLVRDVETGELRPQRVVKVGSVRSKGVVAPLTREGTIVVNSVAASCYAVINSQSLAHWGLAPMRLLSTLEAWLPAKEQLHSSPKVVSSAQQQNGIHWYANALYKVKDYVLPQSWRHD

## CNc1ccc2oc(C[C@H]3O[C@@]4(CC[C@H]3C)O[C@H]([C@H](C)C(=O)c3ccc[nH]3)[C@H](C)C[C@H]4C)nc2c1C(=O)O [CMN, calcimycin]
Cne-WT
  nature of inhibition (fungistatic/fungicidal): fungistatic (>4 as fungistatic)
Cne-WT; Cryptococcus neoformans, 48 h culture, plated, colonies day 3, read-out: MFC (minimum fungicidal concentration)
  MFC: > 26 mg/L
[1]
  density of spliced product, hedgehog cholesterolysis: did not change the density of spliced product
Pharmacokinetics in mice; mean ± S.D. n = 5
  t½: 7.2 h
Pharmacokinetics in mice; male, C57BL/6, mouse, po, 40 mg/kg, mean ± S.D. n = 5
  Tmax: ~10 h
Pharmacokinetics in mice; male, C57BL/6, mouse, po, 40 mg/kg, mean ± S.D. n = 5, read-out: t½ (converted)
  half-life: 7.6 h
Pharmacokinetics in mice; mouse, mean ± S.D. n = 5
  Cmax: 0.301 µg/mL
